Here are results for 23 compounds from patent US20150038438A1, “ANTIBACTERIAL COMPOUNDS AND METHODS FOR USE” (PTC THERAPEUTICS, INC., priority 2011, published 2015).

Holding throughout (assay): Antibacterial activity, microbroth dilution method (MIC)
For orientation: Dilution methods test growth across graded concentrations, often in twofold steps.

Experiment [1] concerns control Gram-negative E. coli 25922 strain. The class given is cell-based, Escherichia coli. The settings on record: Escherichia coli. In a few lines:
(§1)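 Microbroth dilution was used. MIC, in μg/mL, is the lowest drug concentration preventing macroscopically visible growth under the test conditions.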

Experiment [2] deals with super sensitive Gram-negative Escherichia coli (E. coli) BAS849. Format: cell-based. The settings on record: Escherichia coli; super sensitive Gram-negative E. coli BAS849; microbroth dilution; read-out: MIC, E. coli BAS849. In a few lines:
as §1

The subject of experiment [3] is Gram-positive Staphylococcus aureus (S. aureus) 29213. Format: cell-based. The note with it: Staphylococcus aureus, Gram-positive S. aureus 29213. In a few lines: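 In a microbroth dilution test, the minimum inhibitory concentration was defined as the lowest compound level preventing growth seen by eye, and was given in μg/mL.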

Values after ≈ are worked out from the molar mass of the structure shown. Some results are limits rather than exact numbers.

For `CCNCc1cc2cc3c(cc2n1C)[C@H](O)[C@H](O)Cc1c-3[nH]c(=O)c(C(=O)O)c1O.Cl` (relative stereo) [Cpd 71, (cis)-10-((ethylamino)methyl)-4,6,7-trihydroxy-9-methyl-2-oxo-1,2,5,6,7,9-hexahydropyrido[3′,2′:6,7]cyclohepta[1,2-f]indole-3-carboxylic acid hydrochloride], the MIC in experiment [1], in experiment [2] and in experiment [3] was 12.5 to 150 µg/mL throughout.

For `CN1CCN(c2ccc3c(c2)NCCc2c-3[nH]c(=O)c(C(=O)O)c2O)CC1.Cl` [Cpd 96, 4-hydroxy-9-(4-methylpiperazin-1-yl)-2-oxo-2,5,6,7-tetrahydro-1H-benzo[b]pyrido[2,3-d]azepine-3-carboxylic acid hydrochloride], the MIC (commonly the lowest concentration that inhibits growth of the organism) in experiment [1] lay within 12.5 to 150 µg/mL; in experiment [2], 3.5 to 12.5 µg/mL; in experiment [3], 12.5 to 150 µg/mL.

As to `Cl.Cn1c(CNC2(C)CC2)cc2cc3c(cc21)OCCc1c-3[nH]c(=O)c(C(=O)O)c1O` [Cpd 167, 4-hydroxy-9-methyl-10-(((1-methylcyclopropyl)amino)methyl)-2-oxo-2,5,6,9-tetrahydro-1H-pyrido[2′,3′:4,5]oxepino[3,2-f]indole-3-carboxylic acid hydrochloride], the MIC was under 1 µg/mL in experiment [1], under 1 µg/mL in experiment [2] and 1 to 3.5 µg/mL in experiment [3].

On to `CC1Oc2ccccc2-c2[nH]c(=O)c(C(=O)O)cc21` (stereo not drawn) [Cpd 73, 5-methyl-2-oxo-2,5-dihydro-1H-chromeno[4,3-b]pyridine-3-carboxylic acid], for which the MIC in experiment [1], in experiment [2] and in experiment [3] was 12.5 to 150 µg/mL (≈ 48.6 to 583 µM) throughout.

For `CC1Cc2cc(N3CCCC3)ccc2-c2[nH]c(=O)c(C(=O)O)c(O)c21` (stereo not drawn) [Cpd 107, 4-hydroxy-5-methyl-2-oxo-8-(pyrrolidin-1-yl)-1,2,5,6-tetrahydrobenzo[h]quinoline-3-carboxylic acid], the MIC in experiment [1] was 12.5 to 150 µg/mL (≈ 36.7 to 441 µM); in experiment [2] it was under 1 µg/mL; in experiment [3], 3.5 to 12.5 µg/mL (≈ 10.3 to 36.7 µM).

`CCCCCNCc1cc2cc3c(cc2n1C)CCCc1c-3[nH]c(=O)c(C(=O)O)c1O.Cl` [Cpd 137, 4-hydroxy-9-methyl-2-oxo-10-((pentylamino)methyl)-1,2,5,6,7,9-hexahydropyrido[3′,2′:6,7]cyclohepta[1,2-f]indole-3-carboxylic acid hydrochloride]: the MIC was under 1 µg/mL in experiment [1], under 1 µg/mL in experiment [2] and 3.5 to 12.5 µg/mL in experiment [3].

Turning to `COC1CCN(Cc2cc3cc4c(cc3n2C)CCCc2c-4[nH]c(=O)c(C(=O)O)c2O)C1.Cl` (stereo not drawn) [Cpd 158, 4-hydroxy-10-((3-methoxypyrrolidin-1-yl)methyl)-9-methyl-2-oxo-1,2,5,6,7,9-hexahydropyrido[3′,2′:6,7]cyclohepta[1,2-f]indole-3-carboxylic acid hydrochloride], the MIC in experiment [1] is 1 to 3.5 µg/mL; in experiment [2], under 1 µg/mL; in experiment [3], 3.5 to 12.5 µg/mL.

In the case of `CC(C)NCc1cc2cc3c(cc2n1C)OCCc1c-3[nH]c(=O)c(C(=O)O)c1O.Cl` [Cpd 90, 4-hydroxy-10-((isopropylamino)methyl)-9-methyl-2-oxo-2,5,6,9-tetrahydro-1H-pyrido[2′,3′:4,5]oxepino[3,2-f]indole-3-carboxylic acid hydrochloride], the MIC in experiment [1] was under 1 µg/mL; in experiment [2] it was under 1 µg/mL; in experiment [3], 12.5 to 150 µg/mL.

Regarding `Cn1c2c(c(O)c(C(=O)O)c1=O)CC=Cc1cc3c(ccn3C)cc1-2` [Cpd 131, 4-hydroxy-1,9-dimethyl-2-oxo-1,2,5,9-tetrahydropyrido[3′,2′:6,7]cyclohepta[1,2-f]indole-3-carboxylic acid], the minimum inhibitory concentration (MIC) in experiment [1] was 12.5 to 150 µg/mL (≈ 37.2 to 446 µM); in experiment [2] it was under 1 µg/mL; in experiment [3], 3.5 to 12.5 µg/mL (≈ 10.4 to 37.2 µM).

Turning to `CNCc1cc2cc3c(cc2n1C)C(C)CCc1c-3[nH]c(=O)c(C(=O)O)c1O.Cl` (stereo not drawn) [Cpd 62, 4-hydroxy-7,9-dimethyl-10-((methylamino)methyl)-2-oxo-1,2,5,6,7,9-hexahydropyrido[3′,2′:6,7]cyclohepta[1,2-f]indole-3-carboxylic acid hydrochloride], the MIC in experiment [1] fell in the range of 3.5 to 12.5 µg/mL; in experiment [2] it was 1 to 3.5 µg/mL; in experiment [3], 12.5 to 150 µg/mL.

Consider `CC(CO)NCc1cc2cc3c(cc2n1C)CCCc1c-3[nH]c(=O)c(C(=O)O)c1O.Cl` (stereo not drawn) [Cpd 151, 4-hydroxy-10-(((1-hydroxypropan-2-yl)amino)methyl)-9-methyl-2-oxo-1,2,5,6,7,9-hexahydropyrido[3′,2′:6,7]cyclohepta[1,2-f]indole-3-carboxylic acid hydrochloride], for which the values for the MIC in experiment [1], in experiment [2] and in experiment [3] were 1 to 3.5 µg/mL, 3.5 to 12.5 µg/mL and 12.5 to 150 µg/mL, respectively.

Consider `CCNCc1cc2cc3c(cc2n1C)NCCc1c-3[nH]c(=O)c(C(=O)O)c1O.Cl` [Cpd 100, 10-((ethylamino)methyl)-4-hydroxy-9-methyl-2-oxo-1,2,5,6,7,9-hexahydropyrido[2′,3′:4,5]azepino[3,2-f]indole-3-carboxylic acid hydrochloride], for which the MIC fell in the range of 12.5 to 150 µg/mL in experiment [1], 1 to 3.5 µg/mL in experiment [2] and 12.5 to 150 µg/mL in experiment [3].

For `Cl.Cl.Cn1c(CNCCN)cc2cc3c(cc21)CCCc1c-3[nH]c(=O)c(C(=O)O)c1O` [Cpd 144, 10-(((2-aminoethyl)amino)methyl)-4-hydroxy-9-methyl-2-oxo-1,2,5,6,7,9-hexahydropyrido[3′,2′:6,7]cyclohepta[1,2-f]indole-3-carboxylic acid dihydrochloride], the MIC in experiment [1] is 12.5 to 150 µg/mL; in experiment [2], 3.5 to 12.5 µg/mL; in experiment [3], 12.5 to 150 µg/mL.

Turning to `CCn1c2c(c(O)c(C(=O)O)c1=O)CC=Cc1cc3c(ccn3C)cc1-2` [Cpd 132, 1-ethyl-4-hydroxy-9-methyl-2-oxo-1,2,5,9-tetrahydropyrido[3′,2′:6,7]cyclohepta[1,2-f]indole-3-carboxylic acid], the MIC in experiment [1] fell in the range of 12.5 to 150 µg/mL (≈ 35.7 to 428 µM); in experiment [2], 3.5 to 12.5 µg/mL (≈ 9.99 to 35.7 µM); in experiment [3] it was 3.5 to 12.5 µg/mL (≈ 9.99 to 35.7 µM).

As for `CC(C)NCc1cc2cc3c(cc2n1C)CCCc1c-3[nH]c(=O)c(C(=O)O)c1O.Cl` [Cpd 26, 4-hydroxy-10-((isopropylamino)methyl)-9-methyl-2-oxo-1,2,5,6,7,9-hexahydropyrido[3′,2′:6,7]cyclohepta[1,2-f]indole-3-carboxylic acid hydrochloride], the MIC in experiment [1] was under 1 µg/mL; in experiment [2], under 1 µg/mL; in experiment [3] it was 3.5 to 12.5 µg/mL.

On to `CN(C)c1ccc2c(c1)OCCc1c-2[nH]c(=O)c(C(=O)O)c1O` [Cpd 76, 9-(dimethylamino)-4-hydroxy-2-oxo-1,2,5,6-tetrahydrobenzo[2,3]oxepino[4,5-b]pyridine-3-carboxylic acid], for which the MIC in experiment [1] was 12.5 to 150 µg/mL (≈ 39.5 to 474 µM); in experiment [2], under 1 µg/mL; in experiment [3], 12.5 to 150 µg/mL (≈ 39.5 to 474 µM).

Consider `CN(C)c1ccc2c(c1)CCCc1cc(C(=O)O)c(=O)[nH]c1-2` [Cpd 2, 9-(dimethylamino)-2-oxo-2,5,6,7-tetrahydro-1H-benzo[6,7]cyclohepta[1,2-b]pyridine-3-carboxylic acid], for which the results for the MIC in experiment [1], in experiment [2] and in experiment [3] were 12.5 to 150 µg/mL (≈ 41.9 to 503 µM), under 1 µg/mL and 12.5 to 150 µg/mL (≈ 41.9 to 503 µM), respectively.

As to `CN(C)CCNc1ccc2c(c1)CCCc1c-2[nH]c(=O)c(C(=O)O)c1O.Cl` [Cpd 113, 9-((2-(dimethylamino)ethyl)amino)-4-hydroxy-2-oxo-2,5,6,7-tetrahydro-1H-benzo[6,7]cyclohepta[1,2-b]pyridine-3-carboxylic acid hydrochloride], the MIC was 12.5 to 150 µg/mL in experiment [1], 3.5 to 12.5 µg/mL in experiment [2] and 12.5 to 150 µg/mL in experiment [3].

Regarding `CC1Cc2cc(N3CCC(N(C)C)C3)ccc2-c2[nH]c(=O)c(C(=O)O)c(O)c21.Cl` (stereo not drawn) [Cpd 109, 8-(3-(dimethylamino)pyrrolidin-1-yl)-4-hydroxy-5-methyl-2-oxo-1,2,5,6-tetrahydrobenzo[h]quinoline-3-carboxylic acid hydrochloride], the MIC in experiment [1] was in the range of 12.5 to 150 µg/mL; in experiment [2] it was 3.5 to 12.5 µg/mL; in experiment [3], 12.5 to 150 µg/mL.

On to `Cl.Cn1c(CNCC2CC2)cc2cc3c(cc21)CCCc1c-3[nH]c(=O)c(C(=O)O)c1O` [Cpd 32, 10-(((cyclopropylmethyl)amino)methyl)-4-hydroxy-9-methyl-2-oxo-1,2,5,6,7,9-hexahydropyrido[3′,2′:6,7]cyclohepta[1,2-f]indole-3-carboxylic acid hydrochloride], for which the MIC is 1 to 3.5 µg/mL in experiment [1], under 1 µg/mL in experiment [2] and 1 to 3.5 µg/mL in experiment [3].

Take `Cl.Cn1c(CNCCO)cc2cc3c(cc21)OCCc1c-3[nH]c(=O)c(C(=O)O)c1O` [Cpd 177, 4-hydroxy-10-(((2-hydroxyethyl)amino)methyl)-9-methyl-2-oxo-2,5,6,9-tetrahydro-1H-pyrido[2′,3′:4,5]oxepino[3,2-f]indole-3-carboxylic acid hydrochloride]: the MIC is 12.5 to 150 µg/mL in experiment [1], under 1 µg/mL in experiment [2] and 12.5 to 150 µg/mL in experiment [3].

As for `Cl.Cn1c(CN2CCCC2)cc2cc3c(cc21)CCCc1c-3[nH]c(=O)c(C(=O)O)c1O` [Cpd 50, 4-hydroxy-9-methyl-2-oxo-10-(pyrrolidin-1-ylmethyl)-1,2,5,6,7,9-hexahydropyrido[3′,2′:6,7]cyclohepta[1,2-f]indole-3-carboxylic acid hydrochloride], the results for the MIC in experiment [1], in experiment [2] and in experiment [3] were under 1 µg/mL, under 1 µg/mL and 3.5 to 12.5 µg/mL, respectively.

Consider `CN1CCN(Cc2cc3cc4c(cc3n2C)OCCc2c-4[nH]c(=O)c(C(=O)O)c2O)CC1.Cl.Cl` [Cpd 176, 4-hydroxy-9-methyl-10-((4-methylpiperazin-1-yl)methyl)-2-oxo-2,5,6,9-tetrahydro-1H-pyrido[2′,3′:4,5]oxepino[3,2-f]indole-3-carboxylic acid dihydrochloride], for which the MIC in experiment [1] is 3.5 to 12.5 µg/mL; in experiment [2], under 1 µg/mL; in experiment [3], 12.5 to 150 µg/mL.
